Laboratory results taken from PMC10897476, “Pyridylpiperazine efflux pump inhibitor boosts in vivo antibiotic efficacy against K. pneumoniae” (EMBO Molecular Medicine, 2023).
Where two headings read alike, the source gives them in different places. Marks after values point to notes of the source that are not given here.

Legend:
[1] = tested on: K. pneumoniae AcrB^V448E RamR^mut; assay: MIC of antibiotics with and without EPI (REMA), double mutant; format: cell-based, Klebsiella pneumoniae; details: for Minimum Inhibitory Concentration: K. pneumoniae AcrB^V448E RamR^mut; for MIC: Klebsiella pneumoniae, read-out: Minimum Inhibitory Concentration
Experimental: (§1) MIC experiments were carried out according to the CLSI guidelines (CLSI [2023]). Overnight cultures were diluted to an OD600 = 0.001 in CAMHB followed by addition of efflux pump inhibitors (EPIs) at a final concentration of 100 µM. […] Plates were incubated at 37 °C for up to 20 h. Bacterial viability was evaluated using the resazurin microtitre assay (REMA) and measured by fluorescence using a Tecan Spaert multimode plate reader (Ex: 530 nm Em: 590 nm). MICs were defined as the concentration that prevented 90% of resazurin turnover compared to the non-treated bacteria.

K. pneumoniae AcrB^V448E = assay: MIC of antibiotics with and without EPI (REMA), AcrB V448E mutant; format: cell-based, Klebsiella pneumoniae; details: for Minimum Inhibitory Concentration: K. pneumoniae AcrB^V448E; for MIC: Klebsiella pneumoniae, read-out: Minimum Inhibitory Concentration
Experimental: as §1
(§2) Mutations in acrB or ramR identified in the BDM88855.HCl (1’) resistant mutant (a.k.a., KPJC11) were introduced individually into K. pneumoniae ATCC 43816 chromosome by allelic exchange (Cianfanelli et al, [2020]). Briefly, 1-kb PCR products centred around each point mutation were generated by amplifying acrB with primers RH1251 ([…][…]) and RH1252 ([…][…]) or ramR with primers RH1249 ([…][…]) and RH1250 ([…][…]) from KPJC11 genomic DNA. PCR fragments were cloned into pFOK (Cianfanelli et al, [2020]) using NEB-building kit ([New England Biolabs]) to generate pEP1533 and pEP1534. Correct plasmids were confirmed by sequencing and introduced into K. pneumoniae ATCC43816 WT via conjugation with the MFDpir+ E. coli donor strain. Exconjugants were selected on kanamycin (50 mg/L) plates at 37 °C and plasmid chromosomal integration was checked by PCR. […] The next day, cultures were diluted and plated onto LB agar. Isolated colonies were then patched onto LB plates with or without kanamycin (50 mg/L) and Km^S candidates were evaluated for correct allelic exchange via acrB or ramR sequencing and then WGS to confirm no additional mutations were introduced.

[2] = tested on: K. pneumoniae RamR^mut (K124*stop); assay: MIC of antibiotics with and without EPI (REMA), RamR mutant; format: cell-based, Klebsiella pneumoniae; details: for Minimum Inhibitory Concentration: K. pneumoniae RamR^mut; for MIC: Klebsiella pneumoniae, read-out: Minimum Inhibitory Concentration
Experimental: as §1, §2

[3] = tested on: K. pneumoniae ATCC 43816 (WT); assay: MIC of antibiotics with and without EPI (REMA), WT strain; format: cell-based, Klebsiella pneumoniae; details: for MIC: Klebsiella pneumoniae
Experimental: Overnight cultures were diluted to an OD600 = 0.001 in CAMHB followed by addition of efflux pump inhibitors (EPIs) at a final concentration of 100 µM. […] Plates were incubated at 37 °C for up to 20 h. […] MICs were defined as the concentration that prevented 90% of resazurin turnover compared to the non-treated bacteria.

[4] = Microsomal stability in mouse liver microsomes; format: in vitro ADME; details: for microsomal CLint at 1 μM / half-life at 1 μM: female; for microsomal CLint at 1 μM: CD-1, pH 7.4, read-out: Microsomal stability CLint (intrinsic clearance); for half-life at 1 μM: CD-1, pH 7.4, read-out: Microsomal stability t1/2
Experimental: To determine compound microsomal stability, liver microsomes from female mice (CD-1, Corning) were used. All incubations were performed in duplicate in a shaking water bath at 37 °C. The incubation mixtures contained 1 μM compound with 1% MeOH used as a vehicle, mouse liver microsomes (0.3 mg of microsomal protein per mL), 5 mM MgCl2, 1 mM NADP, 5 mM glucose 6-phosphate, 0.4 U/mL glucose 6-phosphate dehydrogenase, and 50 mM potassium phosphate buffer (pH 7.4) in a final volume of 0.5 mL. Propranolol, known as a high hepatic clearance drug in rodents, was used as a quality-control compound. Controls (t0 and tfinal) were performed in the same conditions but without NADP. The reaction was initiated by the addition of the compound at 1 µM final. Aliquots were removed at 5, 10, 20, 30, and 40 min and the reaction was stopped by adding four volumes of ice-cold MeCN or MeOH containing an internal standard. The samples were centrifuged for 10 min at 12,000 rpm at 4 °C and the supernatants were transferred in matrix tubes for LC-MS/MS analysis. Each compound was quantified by converting the corresponding analyte/internal standard peak area ratios to percentage drug remaining, using the initial ratio values in control incubations as 100%.
Intrinsic clearance (CLint) is expressed as μL/min/mg proteins.

E. coli BW25113 = assay: PyrPip boosting of pyridomycin activity in E. coli (resazurin reduction); format: cell-based, Escherichia coli; details: for EC90: read-out: PyrPip antibiotic boosting activity EC90
Description: With the aim of developing a PyrPip for in vivo efficacy studies in mice, it was important to optimise the metabolic stability of these efflux pump inhibitors to guarantee sufficient exposure in mice needed for antibiotic boosting. […] To identify metabolically stabilised PyrPips while maintaining AcrB inhibition, it was therefore decided to explore modifications to the quinoline core as well as the introduction of substituents at position 6 of the quinoline ring.

[5] = K. pneumoniae WT, + 100 µM PAβN
[6] = E. coli BW25113 in the presence of 8 μg/mL pyridomycin, resazurin reduction, mean ± SEM

CCN1CCN(C(=O)N[C@@H](C(=O)N[C@@H]2C(=O)N3[C@@H]2SC(C)(C)[C@@H]3C(=O)O)c2ccccc2)C(=O)C1=O [Piperacillin]
Minimum Inhibitory Concentration ([1]; + 100 µM 1'): 37 mg/L | Minimum Inhibitory Concentration ([1]; + 100 µM 5): 21 mg/L | Minimum Inhibitory Concentration ([1]; + 100 µM PAβN): 43 mg/L | MIC [1]: 21 µg/mL | Minimum Inhibitory Concentration (K. pneumoniae AcrB^V448E; + 100 µM 1'): 5.3^# mg/L | Minimum Inhibitory Concentration (K. pneumoniae AcrB^V448E; + 100 µM 5): 5.3^# mg/L | Minimum Inhibitory Concentration (K. pneumoniae AcrB^V448E; + 100 µM PAβN): 13 mg/L | MIC (K. pneumoniae AcrB^V448E): 16 µg/mL | Minimum Inhibitory Concentration ([2]; + 100 µM 1'): 16 mg/L | Minimum Inhibitory Concentration ([2]; + 100 µM 5): 6.7^# mg/L | Minimum Inhibitory Concentration ([2]; + 100 µM PAβN): 21 mg/L | MIC [2]: 27 µg/mL | Minimum Inhibitory Concentration ([3]; K. pneumoniae WT, + 100 µM 1'): 5.3 mg/L | Minimum Inhibitory Concentration ([3]; K. pneumoniae WT, + 100 µM 5): 4.0^# mg/L | Minimum Inhibitory Concentration [3, 5]: 8.0 mg/L | MIC ([3]; ATCC43816, K. pneumoniae WT, No EPI, read-out: Minimum Inhibitory Concentration): 8 µg/mL

CN(C)[C@@H]1C(O)=C(C(N)=O)C(=O)[C@@]2(O)C(O)=C3C(=O)c4c(O)cccc4[C@@](C)(O)[C@H]3C[C@@H]12 [Tetracycline]
Minimum Inhibitory Concentration ([1]; + 100 µM 1'): 11 mg/L | Minimum Inhibitory Concentration ([1]; + 100 µM 5): 8.5 mg/L | Minimum Inhibitory Concentration ([1]; + 100 µM PAβN): 4.3^# mg/L | MIC [1]: 11 µg/mL | Minimum Inhibitory Concentration (K. pneumoniae AcrB^V448E; + 100 µM 1'): 0.8^# mg/L | Minimum Inhibitory Concentration (K. pneumoniae AcrB^V448E; + 100 µM 5): 0.7^# mg/L | Minimum Inhibitory Concentration (K. pneumoniae AcrB^V448E; + 100 µM PAβN): 2.7 mg/L | MIC (K. pneumoniae AcrB^V448E): 1.9 µg/mL | Minimum Inhibitory Concentration ([2]; + 100 µM 1'): 1.1^# mg/L | Minimum Inhibitory Concentration ([2]; + 100 µM 5): 0.7^# mg/L | Minimum Inhibitory Concentration ([2]; + 100 µM PAβN): 4.3^# mg/L | MIC [2]: 8.5 µg/mL | Minimum Inhibitory Concentration ([3]; K. pneumoniae WT, + 100 µM 1'): 0.4^# mg/L | Minimum Inhibitory Concentration ([3]; K. pneumoniae WT, + 100 µM 5): 0.4^# mg/L | Minimum Inhibitory Concentration [3, 5]: 1.3 mg/L | MIC ([3]; ATCC43816, read-out: Minimum Inhibitory Concentration): 0.8 µg/mL

Clc1cc2ccccc2nc1N1CCNCC1 [compound 1]
Microsomal stability CLint (intrinsic clearance) [4]: 59 μL/min/mg proteins | Microsomal stability t1/2 [4]: 24 min | PyrPip antibiotic boosting activity EC90 (E. coli BW25113; [6]): 3.6 ± 0.5 µM | susceptibility of the strain to antibiotic boosting by the EPI, in words (K. pneumoniae AcrB^V448E; K. pneumoniae-AcrB^V448E, Table 2): resistant | EPI mediated antibiotic boosting, in words ([2]; K. pneumoniae-RamR^mut, Table 2): maintained

Clc1nc2ccccc2cc1N1CCNCC1 [compound 2]
EC90 (E. coli BW25113; [6]): 15.6 µM | decrease in potency (EC90) on changing the position of the nitrogen atom (E. coli BW25113; relative to BDM88855.HCl (1’)): 4 fold

Clc1nc2ccccc2nc1N1CCNCC1 [compound 3]
microsomal CLint at 1 μM [4]: 111 µL/min/mg | half-life at 1 μM [4]: 15 min | EC90 (E. coli BW25113; [6]): 3.9 ± 1.6 µM

Clc1cc2cc[nH]c2nc1N1CCNCC1 [compound 4]
EC90 (E. coli BW25113; [6]): > 250 µM

Clc1cc2cc(N3CCOCC3)ccc2nc1N1CCNCC1 [compound 6]
microsomal CLint at 1 μM [4]: 103 µL/min/mg | half-life at 1 μM [4]: 11 min | EC90 (E. coli BW25113; [6]): 104 ± 28 µM

Clc1cc2cc(N3CCCCC3)ccc2nc1N1CCNCC1 [compound 7]
microsomal CLint at 1 μM [4]: 223 µL/min/mg | half-life at 1 μM [4]: 6 min | EC90 (E. coli BW25113; [6]): 13 ± 4 µM

O=C1CNCCN1c1ccc2nc(N3CCNCC3)c(Cl)cc2c1 [compound 8]
EC90 (E. coli BW25113; [6]): 31 µM | decrease in potency (EC90) (E. coli BW25113; piperazinone in place of the piperazine of compound 5): 8 fold

NCCNc1ccc2nc(N3CCNCC3)c(Cl)cc2c1 [compound 9]
microsomal CLint at 1 μM [4]: 47 µL/min/mg | half-life at 1 μM [4]: 40 min | EC90 (E. coli BW25113; [6]): 3.9 µM

NCC(=O)Nc1ccc2nc(N3CCNCC3)c(Cl)cc2c1 [compound 10]
microsomal CLint at 1 μM [4]: 2 µL/min/mg | half-life at 1 μM [4]: > 40 min | EC90 (E. coli BW25113; [6]): 3.9 µM

NCCCNc1ccc2nc(N3CCNCC3)c(Cl)cc2c1 [compound 11]
EC90 (E. coli BW25113; [6]): 7.8 µM | decrease in potency (EC90) (E. coli BW25113; relative to compound 9): 2 fold

N[C@@H]1CCN(c2ccc3nc(N4CCNCC4)c(Cl)cc3c2)C1 [compound 12]
microsomal CLint at 1 μM [4]: 303 µL/min/mg | half-life at 1 μM [4]: 2.6 min | EC90 (E. coli BW25113; [6]): 1.3 ± 0.4 µM | improvement of potency (EC90) (E. coli BW25113; compared to analogue 5): 3 fold

N[C@H]1CCN(c2ccc3nc(N4CCNCC4)c(Cl)cc3c2)C1 [compound 13]
EC90 (E. coli BW25113; [6]): 9.1 ± 4.3 µM
